Results: patent US20080194020A1, “Methods For Producing Dendritic Cells That Have Acquired Ctl-Inducing Ability” (Medical and Biological Laboratories Co., Ltd., priority 2004, published 2008)
Peptide text beside a SMILES is read from it. * marks the point of attachment. Cbz = O=C(OCc1ccccc1)*

Tests used:
Type in all cases: cell-based, mouse
DC2.4 cells [1] = assay: MHC class I cross-presentation by DC2.4 cells to OT-I CD8+ T cells (IL-2 ELISA); settings: for effect on stimulation of OT-I CD8+ T cells by OVA (IL-2 production) / effect on stimulation of OT-I CD8+ T cells by SIINFEKL peptide (IL-2 production): FIG. 8b; for effect on stimulation of OT-I CD8+ T cells by OVA (IL-2 production): OVA 250 μg mL−1; for effect on stimulation of OT-I CD8+ T cells by SIINFEKL peptide (IL-2 production): SIINFEKL 10 ng mL−1
Text: Whether knock-down of cellular components involved in ERAD decreases the cross-presentation of exogenous OVA antigen was examined using a system for evaluating the level of antigen presentation, which uses naive CD8^+ T cells from OT-I mice and DC2.4 cells. The DC2.4 cells used as a model of dendritic cells are of the H-2Kb mouse MHC class I haplotype. OT-I (H-2Kb) mice are transgenic mice expressing a T cell receptor (TCRα and β) that recognizes an antigenic peptide (SIINFEKL) (SEQ ID NO: 15) derived from OVA presented on the H-2Kb molecules. The CD8^+ cells of OT-I mice are activated when they recognize OVA peptides presented by BMDCs derived from H-2Kb mice or by DC2.4 cells. When OVA or bOVA is incubated with and affixed onto DC2.4 cells and the cells are further incubated with naive CD8^+ T cells of OT-I mice, the amount of IL-2 produced by OT-I CD8^+ T cells serves as an index of T-cell stimulation as a result of OVA antigen presented by DC2.4 cells.
Parental or knocked-down DC2.4 cells were pre-incubated in a culture medium supplemented with 50 μg mL^−1 polymyxin B for 30 minutes in the presence or absence of lactacystin or MG-132, and incubated with OVA (250 μg mL^−1) or SIINFEKL peptides (10 ng mL^−1) for six hours. The cells were washed, fixed with 1% paraformaldehyde, and aliquoted into microtiter plates (5×10^4 per well). 5×10^4 CD8^+ T cells purified from splenocytes of OT-1 mice using magnetic beads were added to each well and after a 24-hour incubation, the IL-2 secretion was measured by ELISA (BD Biosciences) in triplicate.
DC2.4 cells were incubated with OVA (0, 50, or 250 μg/mL) in RPMI1640/10c% FCS for six hours at 37° C., in the presence or absence of pig-derived HSP90 (10 μg/mL). After washing away the antigen and HSP, OT-I CD8^+ T cells were added, cells were cultured overnight at 37° C., and the amount of IL-2 comprised in the supernatant was measured by the ELISA method.
The timing of the addition of HSP90 (10 μg/mL) and OVA (250 μg/mL) to DC2.4 cells was varied, and the effect on class I antigen presentation was observed. (i) HSP90 was added first, DC2.4 cells were washed, and then OVA was added. (ii) HSP90 and OVA were added simultaneously to DC2.4 cells. (iii) OVA was added first, and after washing DC2.4 cells, HSP90 was added. The results obtained under these three conditions were compared. As a control for all these conditions, an experiment in which only OVA, but not HSP90, was added was also carried out.
Under condition (i), HSP90 was added to DC2.4 cells, the cells were cultured for 30 minutes and then washed to remove HSP90. Next, OVA was added and the cells were cultured for three hours. Thereafter, OVA was removed by washing, and cells were cultured in just the culture medium for three hours. DC2.4 cells activated with OVA by the above procedure were plated in a 96-well plate, OT-I mouse-derived CD8^+ T cells were added to this, and after culturing overnight, the amount of IL-2 released into the supernatant was measured by ELISA.
Under condition (ii), OVA and HSP90 were added simultaneously to DC2.4 cells, cells were cultured for three hours, then washed, and cultured in just the culture medium for three hours. Thereafter, the procedures to investigate the activation of OT-I mouse-derived CD8^+ T cells was carried out similarly to in (i) above.
Under condition (iii), OVA was first added to DC2.4 cells, cells were cultured for three hours, and then washed to remove OVA. Next, HSP90 was added, and the cells were cultured for another three hours. The procedures that follow were carried out similarly to that of (i) and (ii). Meanwhile, timings were set such that the incubation times during the stage in which cells are in contact with OVA and the stage at which OVA has been taken up were the same under conditions (i) to (iii).

DC2.4 cells [2] = assay: Degradation of cell-bound bOVA in DC2.4 cells (pulse-chase, SA beads, Western blot); settings: for effect on decrease (degradation) of cell-bound bOVA: DC2.4 cells incubated with bOVA one hour, chased up to four hours, inhibitor present; for effect on degradation of bOVA taken up into cells: FIG. 1b; for effect on degradation of accumulated bOVA (ERAD inhibition): DC2.4 cells pulsed with bOVA in the presence of MG-132, chased four hours; for effect on bOVA degradation: FIG. 4b
Protocol: Next, DC2.4 cells were incubated with bOVA for one hour, and this was then chased for up to four hours. Cell-bound bOVA was recovered from total cell lysates by streptavidin-agarose and separated by SDS-PAGE.
Depletion of Ca^2+ in the ER is known to inhibit ERAD. Thapsigargin (Tg) is known to decrease the Ca^2+ concentration in the ER lumen by binding to the ER membrane and functioning as an ionophore and to inhibit ERAD. Thus, in the presence of Tg, bOVA degradation by ERAD is predicted to be suppressed. DC2.4 cells were pulsed with bOVA in the presence of MG-132, then washed with PBS or with PBS containing 1 mM EGTA, and then chased for four hours.
Furthermore, the effect of tunicamycin treatment on bOVA accumulation was examined. When cells are treated with tunicamycin (Tm), N-type glycosylation is inhibited, and abnormally folded proteins accumulate in the ER lumen.

DC2.4 cells [3] = assay: MHC class II antigen presentation by DC2.4 cells to OT-II CD4+ T cells (IL-2 production); settings: DC2.4 cells pretreated in the presence of NH4Cl, cultured with OVA
Protocol: DC2.4 cells pretreated in the presence of NH4Cl were cultured with OVA, and then the stimulation of OT-I CD8^+ T cells in response to MHC class I antigen presentation (circles) and stimulation of OT-II CD4^+ T cells in response to MHC class II antigen presentation (triangles) was determined by measuring IL-2 production levels. IL-2 production level in the presence of NH4Cl was expressed as a ratio relative to the control (IL-2 production was 700 pg/mL relative to OT-I, and 20 pg mL relative to OT-II).

Molecule: CC(C)C[C@@H](C=O)NC(=O)[C@H](CC(C)C)NC(=O)[C@H](CC(C)C)NC(=O)OCc1ccccc1 [MG-132, reference compound] (Cbz-Leu-Leu-Leu-aldehyde)
- effect on stimulation of OT-I CD8+ T cells by OVA (IL-2 production) (DC2.4 cells [1]; MG-132 25 μM): suppressed stimulation by OVA
- effect on stimulation of OT-I CD8+ T cells by SIINFEKL peptide (IL-2 production) (DC2.4 cells [1]; MG-132 25 μM): did not suppress stimulation by the SIINFEKL peptide
- effect on decrease (degradation) of cell-bound bOVA (DC2.4 cells [2]): this decrease was blocked
- effect on degradation of bOVA taken up into cells (DC2.4 cells [2]; MG-132 10 μM): reduced the degradation of bOVA taken up into cells

Molecule: Cl.N [NH4Cl, Ammonium chloride, reference compound]
- effect on presentation of OVA antigen with MHC class I to OT-I CD8+ T cells (DC2.4 cells [1]; DC2.4 cells pretreated with inhibitor, cultured with OVA): did not reduce the presentation of the OVA antigen with MHC class I
- effect on decrease (degradation) of cell-bound bOVA (DC2.4 cells [2]): did not significantly affect bOVA degradation
- effect on degradation of bOVA taken up into cells (DC2.4 cells [2]; NH4Cl 50 mM): did not reduce this degradation
- effect on presentation of OVA antigen with MHC class II to OT-II CD4+ cells (DC2.4 cells [3]): inhibited the presentation with MHC class II

Molecule: CC(=O)N[C@@H](CSC(=O)[C@]1([C@@H](O)C(C)C)NC(=O)[C@H](C)[C@@H]1O)C(=O)O [lactacystin, reference compound]
- effect on stimulation of OT-I CD8+ T cells by OVA (IL-2 production) (DC2.4 cells [1]; Lactastatin 10 μM): suppressed stimulation by OVA
- effect on stimulation of OT-I CD8+ T cells by SIINFEKL peptide (IL-2 production) (DC2.4 cells [1]; Lactastatin 10 μM): did not suppress stimulation by the SIINFEKL peptide
- effect on decrease (degradation) of cell-bound bOVA (DC2.4 cells [2]): this decrease was blocked
- effect on degradation of bOVA taken up into cells (DC2.4 cells [2]; lactastatin 2 μM): reduced the degradation of bOVA taken up into cells

Molecule: C/C=C(/C)C(=O)O[C@H]1C(C)=C2[C@H]([C@@H]1OC(=O)CCCCCCC)[C@@](C)(OC(C)=O)C[C@H](OC(=O)CCC)[C@@]1(O)[C@H]2OC(=O)[C@@]1(C)O [thapsigargin, Thapsigargin]
- effect on degradation of accumulated bOVA (ERAD inhibition) (DC2.4 cells [2]): inhibited the degradation of accumulated bOVA
- effect on bOVA degradation (DC2.4 cells [2]; thapsigargin 300 nM): bOVA degradation is inhibited

Molecule: tunicamycin
- effect on degradation of accumulated bOVA (ERAD inhibition) (DC2.4 cells [2]): bOVA degradation was inhibited
- effect on bOVA degradation (DC2.4 cells [2]; tunicamycin 2 g): bOVA degradation is inhibited
